These results are taken from patent US7759391B2, “Pharmaceutical composition comprising thiacremonone for treating colon cancer” (Chungbuk National University Industry Academic Cooperation …, priority 2007, dated 2010).

Test [1] has as its system HCT116 colon cancer cells. Description: Apoptosis detection, DAPI/TUNEL staining, HCT116. The conditions noted are these: 24 h. The format is cell-based, human. The method, then:
FIG. 3B: The apoptotic index was determined as the DAPI-stained TUNEL-positive cell number counted. Values are mean±S.E.M. of three experiments, each performed in triplicate. *P<0.05 indicates statistically significant differences from the untreated group.
Apoptosis assay was first performed by using 4,6-diamino-2-phenylindole (DAPI) staining. SW620 and HCT116 human colon cancer cells were cultured in the absence or presence of increasing concentrations of thiacremonone, and induction of apoptotic cell death was evaluated after 24 h. Apoptotic cells were determined by the morphological changes after DAPI staining under fluorescence microscopic observation (DAS microscope, 100× or 200×: Leica Microsystems, Inc., Deefield, Ill., USA). Apoptosis was also evaluated by TUNEL staining assay. In short, cells were cultured on 8-chamber slides. After treatment with thiacremonone (30-150 μg/ml) for 24 h, the cells were washed twice with PBS and fixed by incubation in 4% paraformaldehyde in PBS for 1 h at room temperature. TUNEL assays were performed by using the in situ Cell Death Detection Kit (Roche Diagonostics GmbH, Mannheim, Germany) according to manufacturer's instructions. Total number of cells in a given area was determined by using DAPI and TUNEL staining. The apoptotic index was determined as the number of DAPIstained TUNEL-positive cells divided by the total cell number counted ×100.

The target in test [2] is T1, NF-κB (Homo sapiens, UniProt Q04206).
T1 construct: endogenous in cells; host or cells: SW620 and HCT116 human colon cancer cells (ATCC)
The experiment in a line: Gel electromobility shift assay (EMSA), NF-κB DNA binding activity, SW620. The format is cell-based. To be noted: SW620, 30-150 μg/ml, 1 h. The method, then:
FIG. 1A: Nuclear extract from SW620 (panel a) and HCT116 (panel b) colon cancer cells treated with thiacremonone (30-150 μg/ml) for 1 h was incubated in binding reactions of ^32P-end-labeled oligonucleotide containing the κB sequence. The activation of NF-κB was investigated using EMSA as described in Materials and Methods. For competition assays, nuclear extracts from cells treated with TNF-α were incubated for 1 h before EMSA with unlabled NF-κB oligonucleotide or labeled NF-κB oligonucleotide. For supershift assays, nuclear extracts from cells treated with TNF-α were incubated for 1 h before EMSA with specific antibodies against the p50 and p65 NF-κB isoforms. SS indicates supershift assay using p65 antibody (panel c). Quantification of band intensities from three independent experimental results performed by densitometry (Imaging System) and the value under each band indicated as fold difference from the untreated control group.
Gel shift assay was performed according to the manufacturer's recommendations (Promega, Madison, Wis., USA). […] The relative density of the DNA-protein binding bands was scanned by densitometry using MyImage (SLB, Seoul, Korea), and quantified by Labworks 4.0 software (UVP Inc., Upland, Calif., USA).
On the technique in general: In EMSA bound probe runs differently from free probe, usually more slowly.

Each structure is given as a SMILES string.

T1 sequence (Q04206 whole entry): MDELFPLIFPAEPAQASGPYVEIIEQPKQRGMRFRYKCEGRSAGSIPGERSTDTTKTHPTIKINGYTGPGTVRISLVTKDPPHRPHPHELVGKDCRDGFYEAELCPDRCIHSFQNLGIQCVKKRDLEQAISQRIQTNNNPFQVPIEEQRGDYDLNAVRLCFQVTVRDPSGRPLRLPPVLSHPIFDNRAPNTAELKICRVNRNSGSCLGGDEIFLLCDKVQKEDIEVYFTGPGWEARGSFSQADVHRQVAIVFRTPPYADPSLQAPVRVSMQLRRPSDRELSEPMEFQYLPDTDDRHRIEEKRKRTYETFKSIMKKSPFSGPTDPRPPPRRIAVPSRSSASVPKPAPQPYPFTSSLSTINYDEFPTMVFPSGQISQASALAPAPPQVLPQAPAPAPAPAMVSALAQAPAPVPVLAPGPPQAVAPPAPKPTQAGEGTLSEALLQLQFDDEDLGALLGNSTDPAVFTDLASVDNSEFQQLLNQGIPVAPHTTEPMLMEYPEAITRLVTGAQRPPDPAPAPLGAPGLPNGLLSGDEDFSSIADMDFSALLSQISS
T1 sequence (P19838 1-433 partner limits assumed): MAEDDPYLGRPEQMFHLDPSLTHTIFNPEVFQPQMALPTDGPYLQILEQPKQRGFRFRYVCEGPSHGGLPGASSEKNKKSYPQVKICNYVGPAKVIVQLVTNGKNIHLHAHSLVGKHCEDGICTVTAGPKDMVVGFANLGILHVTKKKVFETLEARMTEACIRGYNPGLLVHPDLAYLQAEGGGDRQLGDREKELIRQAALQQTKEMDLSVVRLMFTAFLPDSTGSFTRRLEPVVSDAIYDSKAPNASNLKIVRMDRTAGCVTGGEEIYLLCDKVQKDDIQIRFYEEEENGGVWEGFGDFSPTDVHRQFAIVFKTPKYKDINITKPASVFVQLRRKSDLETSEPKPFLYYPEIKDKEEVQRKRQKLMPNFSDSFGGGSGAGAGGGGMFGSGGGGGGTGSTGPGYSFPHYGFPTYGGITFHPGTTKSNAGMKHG

For `CC1=C(O)C(=O)C(C)(O)S1` (stereo not drawn) [thiacremonone, 2,4-dihydroxy-2,5-dimethyl-thiophene-3-one], the apoptotic cell number in test [1] (HCT116, 30 μg/ml) was 0%; in test [1] (HCT116, 60 μg/ml) it was 0%; in test [1] (HCT116, 90 μg/ml), 29%; in test [1] (HCT116, 120 μg/ml) it was 95%; in test [1] (HCT116, 150 μg/ml) it was 98%. In test [2], the “DNA binding activity of NF-κB” value was “decreased DNA binding activity of NF-κB in a dose-dependent manner”.
